Source: patent publication US9687551B2, “Compositions comprising lecithin oils and NSAIDs for protecting the gastrointestinal tract and providing enhanced therapeutic activity” (The Board of Regents of the University of Texas System, priority 2000, dated 2017)
Each block holds one molecule with its values, some of them ahead of it.

What was measured:
[1] = test system: rabbit carotid artery thrombus; experiment: In vivo model of arterial thrombogenesis (carotid artery, anodal current)
Description: The anti-thrombotic effect of aspirin with or without PC was then evaluated in an in vivo model of arterial thrombogenesis. According to the protocol (B24), the left carotid artery of an anesthetized rabbit was subjected to anodal current to the point where mean carotid blood flow velocity was […] control values, which corresponds to 50% occlusion of the vessel by the formed thrombus. At this point the current was discontinued and the test drugs intravenously administered as blood flow was monitored over the next 2-3 hours. It can be appreciated from FIG. 14A that carotid artery blood flow velocity dropped to zero (indicative of complete thrombus occlusion of the vessel) in <60 min in control rabbits treated with either saline or phospholipid alone (mean time until closing=40±17).

[2] = test system: vascular (endothelial) PGI2, abdominal aorta; experiment: Ex vivo 6-keto PGF1α production by abdominal aorta; format: in vivo, rat; details: 20 mg/kg ASA intragastric, 1 hr, incubated with AA; vs control; FIG. 13B
Description: FIG. 13B graphically depicts the effect of intragastric administration to rats of 20 mg/kg ASA alone or complexed with DPPC on 6KPGF1a production by abdominal aorta. After 1 hr the aorta was removed and each aorta ring was incubated at […] for 10 min in Tris-HCl buffer containing 25 mM AA. 6KPGF1a was measured by RIA. *=p<0.050 vs ASA; **=p<0.001 vs saline; n=4;
This ex vivo approach was then used to measure vascular (endothelial) PGI2. Abdominal aorta excised one hour after drug administration was evaluated for its ability to produce 6-keto PGF1α (a stable metabolite of PGI2) by incubating it with arachidonic acid (AA, 25 mM). […] It is, therefore, possible to achieve selective inhibition of platelet cyclooxygenase and preserve vascular prostacyclin biosynthesis by the administration of PC-aspirin.

[3] = test system: PGI2 to TXA2 ratio of carotid artery; experiment: PGI2 to TXA2 ratio in affected carotid arteries; format: in vivo, rabbit; details: 2.5 mg/kg aspirin; FIG. 14C
Description: 6-keto PGF1α (a metabolite of PGI2) and TXA2 concentrations was also measured in the affected carotid arteries.

[4] = test system: fasted Sprague Dawley rats; experiment: Acetaminophen liver injury, plasma AST; format: in vivo, rat; details: acetaminophen 800 mg/kg oral, 24 hrs, P35 SB 1:2 wt ratio, vs saline; FIG. 15
Description: FIG. 15 graphically depicts data relating to liver injury in rats, as indicated by elevations in the plasma levels of the enzyme aspartate transaminase (AST), 24 hours after fasted rats are orally administrated acetaminophen (800 mg/kg) alone or in combination with P35SB at wt. ratios of 1:1 and 1:2.

[5] = test system: mucosal COX activity; details: aspirin subcutaneously or intragastrically; cited from earlier work
[6] = test system: fasted rats; experiment: Gastric lesions after intragastric aspirin followed by HCl challenge; format: in vivo, rat; details: aspirin 18 mg/kg, 0.6 N HCl 45 min later, ASA:lecithin oil 1:0.5, 1:1, 1:2, FIG. 1
Description: One preferred embodiment of this formulation is a lecithin oil based PC-NSAID composition, which has been tested for GI toxicity. The three formulations that were tested include lecithin oils combined with aspirin, indomethacin and ibuprofen. In this study, aspirin was combined with Phosal® 35 SB, a lecithin oil, marketed by Phospholipid GmbH (Cologne, Germany), that is constituted of soy lecithin-derived components in sunflower oil. More particularly, Phosal® 35 SB lecithin oil contains about 33-40 wt. % phosphatidylcholine (PC, not including lyso-phosphatidylcholine), about 26-31 wt. % triglycerides, about 8-13 wt. % free fatty acids, and about 5-9 wt. % glycolipids. The aspirin/lecithin oil (Phosal® 35 SB) composition was intragastrically administered to fasted rats at an aspirin dose of 18 mg/kg, where the NSAID:lecithin oil weight ratio was systematically varied from 1:0.5, to 1:1, to 1:2. In addition, other groups of rats received an equivalent dose of aspirin in the absence of the lecithin oil, or an equivalent volume of saline. Forty five minutes later all animals were intragastrically challenged with 1 ml of 0.6 N HCl, and 15 min later, the animals were euthanized and their stomachs opened and the gastric lesions scored by an established method.^50-52

[7] = test system: rats' inflamed paw; experiment: Pain threshold of CFA-inflamed hindpaw (Randall-Sellito technique); format: in vivo, rat; details: 2 h; for pain pressure threshold of inflamed paw (analgesic activity): lecithin oil 1:1
Description: A previously described method was then used to evaluate the anti-inflammatory/analgesic activity of the NSAID-lecithin formulations (in comparison to the NSAIDs alone). This was accomplished be injecting 0.1 ml of Complete Freund's Adjuvant (CFA) into the left hindpaw of rats to induce an acute inflammatory response. […] The results are depicted in FIGS. 4-6.

[8] = test system: TXB2 production in rat platelets; experiment: Ex vivo TXB2 production in platelets after intragastric dosing; details: 20 mg/kg intragastric, 30 min, aggregation induced by arachidonic acid; FIG. 13A
Description: FIGS. 13A&B graphically depicts Concentration of TXB2 in rat platelets, 30 min after oral administration of saline, DPPC, ASA (20 mg/kg), or ASA complexed with DPPC. PRP was prepared and aggregation induced by AA (2 mM). TXB2 was measured by RIA. The results expressed as mean±SEM; n=3. *=p<0.050 vs ASA—Abbreviations: DPPC=dipalmitoylphosphatidylcholine; AA=arachidonic acid; pRP=platelet rich plasma; TXB=thromboxane;
Ex vivo animal studies of the effects of phospholipid-aspirin complex (containing equimolar concentration of the two agents) on the ability to produce TXA2 and PGI2 in platelets and vascular tissue respectively were invesitaged. Rats were intragastrically administered either unmodified or DPPC-associated aspirin (20 mg/kg dose), and after 30 minutes, blood was drawn, platelet-rich plasma was prepared, and aggregation was induced by arachidonic acid.

[9] = test system: Tg2576 mouse; details: cited from earlier work
[10] = test system: SCI rats; details: 25 mg NSAID/kg twice a day
Description: In FIG. 7A, the data was plotted directly as recorded (without normalization), while in FIG. 7B, the data values for each animal are compared to its own baseline preoperative values.
Please note that in this case, a lower number is indicative of analgesic, whereas with the Randall Sellito test higher pain pressure threshold values are indicative of analgesia.

[11] = test system: fasted rats; experiment: GI bleeding (hemoglobin in GI effusate) in rats sensitised with L-NAME; format: in vivo, rat; details: intragastric, NSAID:lecithin 1:1, L-NAME
Description: Control rats received an equivalent volume of saline. To make the rats more sensitive to the GI damaging effects of the NSAID all rats also were injected with the nitric oxide (NO) synthase inhibitor, L-NAME (20 mg/kg), three times over the 18-20 hr study period, after which the animals were euthanized and the distal 20 cm of the GI tract was flushed with 2 ml of saline, and the effusate collected for hemoglobin analysis—as an index of GI bleeding.

Compound: CCCCCCCCCCCCCCCC(=O)OC[C@H](COP(=O)([O-])OCC[N+](C)(C)C)OC(=O)CCCCCCCCCCCCCCC [DPPC, dipalmitoylphosphatidylcholine]
time until blood flow velocity dropped to zero (complete occlusion) ([1]; control rabbits treated with saline or phospholipid alone, FIG. 14A): < 60 min
mean time until closing ([1]; control rabbits, saline or phospholipid alone (pooled), in min): 40±17
6-keto PGF1α production by abdominal aorta [2]: no effect
PGI2 to TXA2 ratio in affected carotid arteries [3]: improved slightly

Compound: CC(=O)Nc1ccc(O)cc1 [Tylenol, acetaminophen]
plasma aspartate transaminase (AST), liver injury [4]: significantly elevated

gastric lesions [6]: high number of gastric lesions
Compound: CC(=O)Oc1ccccc1C(=O)O [aspirin]
inhibition of mucosal COX activity [5]: > 90%
time to vessel occlusion by thrombus ([1]; 2.5 mg/kg aspirin i.v., FIG. 14A): ≤ 61 ± 15 min
vessel occlusion ([1]; aspirin 5-20 mg/kg i.v., 2-3 hr experiment (data not shown)): no vessel occlusion
6-keto PGF1α production by abdominal aorta [2]: significantly inhibited
PGI2 to TXA2 ratio in affected carotid arteries [3]: improved slightly
pain threshold of affected paw (analgesic activity) ([7]; aspirin 10 mg/kg intragastric, all weight ratios tested, FIG. 4): modest ability to increase the pain threshold
TXB2 production in platelets [8]: reduction in TXB2

Compound: CC(C)Cc1ccc(C(C)C(=O)O)cc1 (centres unmarked) [ibuprofen]
amyloid-plaques, dystrophic neurites and activated microglia [9]: reduce numbers of amyloid-plaques, dystrophic neurites and activated microglia
body weight gain ([10]; 6 week period, FIG. 9): do not gain weight
pain pressure threshold (hyperalgesia), Randall Sellito ([10]; 6 weeks after SCI, FIGS. 7A, 7B): hyperalgesia due to SCI was not seen
pain pressure threshold of inflamed paw (analgesic activity) ([7]; ibuprofen 25 mg/kg intragastric, FIG. 5): modest though non-significant, ability to increase the pain pressure threshold
GI bleeding ([11]; ibuprofen 100 mg/kg, FIG. 3): modest increase in GI bleeding

Compound: COc1ccc2c(c1)c(CC(=O)O)c(C)n2C(=O)c1ccc(Cl)cc1 [indomethacin]
pain pressure threshold of inflamed paw (analgesic activity) ([7]; indomethacin 4 mg/kg intragastric, FIG. 6): modest though non-significant, ability to increase the pain pressure threshold
GI bleeding ([11]; indomethacin 10 mg/kg, FIG. 2): severe increase in GI bleeding
